Key:
[1] = tested on: primary human epidermal keratinocytes; assay: Keratinocyte scratch assay; format: cell-based; conditions: 10^−10M and 10^−7M, culture condition with 15% HKGS, compared with E2
Description: Human skin was transferred to the laboratory in holding media (DMEM containing 4% penicillin-streptomycin and Amphotericin B solution) within 30 minutes of collection. Once defatted, the skin was rinsed in HBSS with 4% PSA followed by DPBS without antibiotics, then cut into thin strips and floated on 0.2% Dispase II in DPBS overnight at 4° C., followed by manual separation of the epidermis from the dermis. Primary human epidermal keratinocytes and primary human dermal fibroblasts were then isolated.
Confluent wells of both primary keratinocytes and fibroblasts were subjected to a highly validated scratch wounding procedure (using a 1 mL sterile filter tip). Post-scratching, cells were rinsed with DPBS and cell-specific media containing treatments added to each well. Cells were imaged on a ptychographic live cell imaging platform (Livecyte 2TM, Phasefocus) for 24-48 hours. Automated tracking of individual unlabeled cells will be combined with 3D cell measurements to quantify a range of wound-relevant cell parameters including scratch closure rate.
Dose range finding experiments were conducted with E4 (10^−10M to 10^−6M) and E2 with and without Mitomycin C (MMC, to inhibit proliferation) using vehicle as negative controls.

K15 positive cells = assay: Hair follicle organ culture: K15 expression, stem cells; format: cell-based, human; conditions: vs vehicle
Description: (§1) 12-44 full-length frontotemporal hair follicles (HF) were obtained from four human female donors >50 years old. Donors were caucasian female subjects […], respectively (Donor 1: 12 temporal anagen HFs; Donor 2: 29; Donor 3: 44; Donor 4: 32). After microdissection from skin as described (Edelkamp et al., Methods Mol Biol, 2020, 2154:105-119; and Langan et al., Exp Dermatol, 2015, December; 24(12):903-1), HFs were placed in adequate culture medium and allowed a 24 h rest period to allow them to recover from the trauma of microdissection. Test substance (either vehicle (0.3% EtOH) or E4 at concentrations of 30 μM, 3 μM or 300 nM) was added to the medium at the end of the 24 h. Total culturing time was 5-7 days depending on the studied parameters and the experimental question. The experimental design for the hair follicle organ culture experiment is depicted in FIG. 12. Longer term culture experiments may be used to analyze the capacity to delay the onset of catagen.
K15 is a type I cytokeratin expressed in HF bulge stem cells and their progeny (Purba et al., BioEssays, 2014). It is expressed in the bulge, infra-bulge and suprabulbar ORS. Bulge stem cells are identified using K15 expression, cellular morphology and anatomical localization (below the sebaceous glands, at the area where the arrector pili muscle attaches to the HF). K15 expression was analyzed in the bulge basal layer and in the suprabulbar ORS, and proliferation of K15 positive cells was evaluated in combination with Ki67 immunofluorescence staining.

[2] = tested on: hair matrix keratinocytes; assay: Hair follicle organ culture: hair matrix keratinocytes proliferation and apoptosis (Ki-67/TUNEL); format: cell-based, human; conditions: vs vehicle
Description: as §1
Germinative hair matrix keratinocytes proliferate mostly during anagen. […] Apoptosis of hair matrix keratinocytes is used as an additional indicator of anagen/catagen transition.
Proliferation was assessed by quantification of the percentage of hair matrix keratinocytes in a clearly specified area (germinative hair matrix keratinocytes, below the Auber's line) that were positive for the proliferation marker Ki67 (or another proliferation marker such as BrdU or EdU), whereas apoptosis was assessed using TUNEL (TdT-mediated dUTP-biotin nick-end labelling) immunofluorescence (or another apoptosis marker such as activated caspase-3) in the same keratinocyte population (below the Auber's line) and in the precortical hair matrix keratincoytes (above the Auber's line) (Langan et al., Exp Dermatol 2015) (FIG. 13).

[3] = tested on: human hair follicles (HF); assay: Hair follicle organ culture: LDH release into the medium; format: cell-based; conditions: all tested concentrations (300 nM, 3 μM, 30 μM)
Description: as §1
LDH is released from the cytoplasm of damaged cells into the culture medium. Therefore, the cytotoxicity of agents can be estimated based on the activity of LDH present in the culture medium using a colorimetric assay (Cytotoxicity Detection Kit [LDH], Roche) as described (Gherardini et al Int J Cosmet Sci, 2019, April; 41(2):164-182). […]

[4] = tested on: CD34 positive cells in the suprabulbar ORS; assay: Hair follicle organ culture: CD34 expression, stem cell progeny; format: cell-based, human; conditions: vs vehicle
Description: as §1
CD34 is a marker expressed by the progeny of HF bulge stem cells. It is expressed in the most external layer of the outer root sheet (ORS) below the isthmus (sub-bulge to suprabulbar regions) (Purba et al., BioEssays, 2014, May; 36(5):513-25). CD34 expression and percentage of CD34^+ cells were analyzed in the suprabulbar ORS.

[5] = tested on: versican in dermal papilla (DP); assay: Hair follicle organ culture: versican expression, DP inductivity; format: cell-based, human; conditions: all tested concentrations, vs vehicle
Description: as §1
Versican, a large chondroitin sulfate proteoglycan molecule, is expressed in DP in anagen HFs and diminishes in catagen HFs and its expression correlates with hair inductive properties (Yang, J Dermatol Sci 2010). Versican intensity was analyzed in the DP.

SMILES: C[C@]12CC[C@@H]3c4ccc(O)cc4CC[C@H]3[C@@H]1[C@@H](O)[C@@H](O)[C@@H]2O [E4, 1,3,5 (10)-estratrien-3,15alpha,16alpha,17beta-tetrol]
- impact on keratinocyte migration, scratch assay [1]: seems higher than the impact of E2
- percentage of K15 positive cells in the suprabulbar ORS (K15 positive cells; 300 nM, 3 μM, 30 μM): did not have any effect
- decreased proliferation of K15 positive cells in the suprabulbar ORS (Ki-67) (K15 positive cells; 300 nM): significantly
- increased proliferation of K15 positive cells in the bulge basal layer (Ki-67) (K15 positive cells; 300 nM): tendentially
- decreased proliferation of K15 positive cells in the suprabulbar ORS (Ki-67) (K15 positive cells; 3 μM): tendentially
- increased proliferation of K15 positive cells in the bulge basal layer (Ki-67) (K15 positive cells; 3 μM): tendentially
- percentage of K15 positive cells in the bulge basal layer (K15 positive cells; 3 μM): significantly decreased
- increased proliferation of K15 positive cells in the bulge basal layer (Ki-67) (K15 positive cells; 30 μM): significantly
- hair matrix keratinocytes apoptosis (TUNEL) ([2]; 300 nM, 3 μM, 30 μM): without affecting
- increased hair matrix keratinocytes proliferation (Ki-67) ([2]; 300 nM): tendentially
- increased hair matrix keratinocytes proliferation (Ki-67) ([2]; 3 μM): significantly
- increased hair matrix keratinocytes proliferation (Ki-67) ([2]; 30 μM): tendentially
- HF cytotoxicity (LDH release into the medium) [3]: did not induce HF cytotoxicity
- increased percentage of CD34 positive cells in the suprabulbar ORS ([4]; 300 nM): tendentially
- increased percentage of CD34 positive cells in the suprabulbar ORS ([4]; 3 μM): significantly
- increased percentage of CD34 positive cells in the suprabulbar ORS ([4]; 30 μM): tendentially
- versican expression in DP cells [5]: tendentially increased

Source: patent US20250099485A1, “COMPOSITIONS FOR PROMOTING HAIR GROWTH” (ESTETRA SRL, priority 2021, published 2025)
